According to ChEMBL document CHEMBL1201862, “PubChem BioAssay data set” (2004):
Active and inactive are the calls of the source.

Tests used:
[1] = molecular target: T1, Polyadenylate-binding protein 1 (Homo sapiens, UniProt P11940); assay: MLLE domain peptide-binding blockers, IC50 – biochemical, fluorescence polarization, FITC-PAM2 peptide, dose response (AID 602259); type: functional; conditions: read-out: IC50_Mean
[2] = molecular target: Peroxisome proliferator-activated receptor gamma/Nuclear receptor coactivator 1 (Homo sapiens, UniProt P37231); assay: (§1) TR-FRET dose response biochemical High Throughput Screening assay for agonists of the steroid receptor coactivator 1 (SRC-1) recruitment by the peroxisome proliferator-activated receptor gamma (PPAR gamma): non-selective agonists. [Related pubchem assays (depositor defined):AID1300, AID1808, AID504735, AID631]; type: protein assay
[3] = molecular target: Peroxisome proliferator-activated receptor gamma/Nuclear receptor coactivator 3 (Homo sapiens, UniProt P37231); assay: as §1, with “3 (SRC-3)” for “1 (SRC-1)”, “assays: 1301 (Confirmation screen.), 1048 (Primary screen.)]” for “assays (depositor defined):AID1300, AID1808, AID504735, AID631]”; type: functional
[4] = molecular target: T2, Protein skinhead-1 (Caenorhabditis elegans, UniProt P34707); type: functional
T2 sequence (P34707 whole entry): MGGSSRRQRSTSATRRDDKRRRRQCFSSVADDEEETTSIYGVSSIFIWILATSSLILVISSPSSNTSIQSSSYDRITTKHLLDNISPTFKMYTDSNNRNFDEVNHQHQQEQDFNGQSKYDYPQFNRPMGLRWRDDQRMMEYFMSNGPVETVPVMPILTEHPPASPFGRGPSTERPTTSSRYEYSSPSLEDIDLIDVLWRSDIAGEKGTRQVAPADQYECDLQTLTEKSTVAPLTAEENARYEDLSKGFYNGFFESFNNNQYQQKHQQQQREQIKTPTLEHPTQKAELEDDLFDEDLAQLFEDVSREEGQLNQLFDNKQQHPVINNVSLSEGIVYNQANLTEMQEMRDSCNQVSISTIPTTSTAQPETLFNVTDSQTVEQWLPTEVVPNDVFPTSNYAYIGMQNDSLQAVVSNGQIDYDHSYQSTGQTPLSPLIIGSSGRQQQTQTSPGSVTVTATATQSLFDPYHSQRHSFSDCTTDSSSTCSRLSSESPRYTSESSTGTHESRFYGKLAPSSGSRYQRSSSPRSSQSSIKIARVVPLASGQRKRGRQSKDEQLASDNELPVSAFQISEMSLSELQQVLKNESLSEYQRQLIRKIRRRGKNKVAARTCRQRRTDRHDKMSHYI

[5] = molecular target: T1, Polyadenylate-binding protein 1; assay: MLLE binding blockers, Cy5 peptide tracer – biochemical, fluorescence polarization, Cy5-PAM2 peptide, secondary, miRNA deadenylation inhibitor project, dose response (AID 602260); type: functional; conditions: read-out: IC50_Mean
[6] = molecular target: Ephrin type-A receptor 4 (Mus musculus, UniProt Q03137); assay: EphA4 ligand-binding antagonists – biochemical, colorimetric, mouse EphA4, primary screen (AID 689); type: functional
Ephrin type-A receptor 4, sequence (Q03137 whole entry): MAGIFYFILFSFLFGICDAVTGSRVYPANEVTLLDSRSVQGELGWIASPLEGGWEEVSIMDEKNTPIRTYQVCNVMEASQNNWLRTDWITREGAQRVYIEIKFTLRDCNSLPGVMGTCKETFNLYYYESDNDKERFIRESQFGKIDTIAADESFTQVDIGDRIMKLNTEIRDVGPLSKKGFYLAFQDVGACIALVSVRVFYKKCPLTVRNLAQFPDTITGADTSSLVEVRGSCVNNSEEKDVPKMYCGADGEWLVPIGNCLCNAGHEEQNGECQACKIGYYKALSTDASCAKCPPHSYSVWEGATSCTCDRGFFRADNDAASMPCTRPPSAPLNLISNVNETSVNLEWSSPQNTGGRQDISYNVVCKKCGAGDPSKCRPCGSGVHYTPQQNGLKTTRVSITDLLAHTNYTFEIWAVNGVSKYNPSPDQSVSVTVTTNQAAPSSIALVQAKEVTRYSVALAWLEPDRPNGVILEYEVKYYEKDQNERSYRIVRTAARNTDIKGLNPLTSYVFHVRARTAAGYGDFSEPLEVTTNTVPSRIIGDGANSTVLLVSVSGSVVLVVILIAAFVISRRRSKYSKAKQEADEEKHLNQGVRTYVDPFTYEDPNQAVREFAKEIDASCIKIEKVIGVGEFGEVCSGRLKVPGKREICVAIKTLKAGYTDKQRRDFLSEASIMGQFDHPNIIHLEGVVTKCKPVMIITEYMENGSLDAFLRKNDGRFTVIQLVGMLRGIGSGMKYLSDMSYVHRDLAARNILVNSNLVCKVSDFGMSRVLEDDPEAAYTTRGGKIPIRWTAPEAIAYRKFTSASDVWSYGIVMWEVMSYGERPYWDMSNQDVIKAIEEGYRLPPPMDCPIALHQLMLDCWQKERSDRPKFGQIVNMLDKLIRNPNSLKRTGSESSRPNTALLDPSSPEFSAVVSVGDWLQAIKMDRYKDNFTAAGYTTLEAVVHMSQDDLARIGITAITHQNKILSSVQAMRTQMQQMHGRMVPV

[7] = molecular target: Peroxisome proliferator-activated receptor gamma/Nuclear receptor coactivator 2 (Homo sapiens, UniProt P37231); assay: TR-FRET dose response biochemical High Throughput Screening assay for agonists of the steroid receptor coactivator 2 (SRC-2) recruitment by the peroxisome proliferator-activated receptor gamma (PPAR gamma): non-selective agonists. [Related pubchem assays: 1297, 1032 ]; type: functional
Peroxisome proliferator-activated receptor gamma/Nuclear receptor coactivator 2, sequence (P37231 whole entry): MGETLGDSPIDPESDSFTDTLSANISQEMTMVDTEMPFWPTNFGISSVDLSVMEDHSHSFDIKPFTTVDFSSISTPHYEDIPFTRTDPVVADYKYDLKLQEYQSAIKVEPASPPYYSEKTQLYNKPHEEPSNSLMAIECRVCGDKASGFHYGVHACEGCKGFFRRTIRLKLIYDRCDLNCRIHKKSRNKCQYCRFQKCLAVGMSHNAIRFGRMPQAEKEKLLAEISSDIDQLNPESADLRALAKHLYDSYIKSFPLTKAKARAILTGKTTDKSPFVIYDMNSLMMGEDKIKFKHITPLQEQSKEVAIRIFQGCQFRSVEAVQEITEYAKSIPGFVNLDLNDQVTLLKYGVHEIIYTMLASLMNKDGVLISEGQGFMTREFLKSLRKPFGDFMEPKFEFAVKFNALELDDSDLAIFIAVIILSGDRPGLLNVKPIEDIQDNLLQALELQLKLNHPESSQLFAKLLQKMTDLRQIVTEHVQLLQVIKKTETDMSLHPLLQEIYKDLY
Peroxisome proliferator-activated receptor gamma/Nuclear receptor coactivator 2, sequence (Q15596 whole entry, further chain): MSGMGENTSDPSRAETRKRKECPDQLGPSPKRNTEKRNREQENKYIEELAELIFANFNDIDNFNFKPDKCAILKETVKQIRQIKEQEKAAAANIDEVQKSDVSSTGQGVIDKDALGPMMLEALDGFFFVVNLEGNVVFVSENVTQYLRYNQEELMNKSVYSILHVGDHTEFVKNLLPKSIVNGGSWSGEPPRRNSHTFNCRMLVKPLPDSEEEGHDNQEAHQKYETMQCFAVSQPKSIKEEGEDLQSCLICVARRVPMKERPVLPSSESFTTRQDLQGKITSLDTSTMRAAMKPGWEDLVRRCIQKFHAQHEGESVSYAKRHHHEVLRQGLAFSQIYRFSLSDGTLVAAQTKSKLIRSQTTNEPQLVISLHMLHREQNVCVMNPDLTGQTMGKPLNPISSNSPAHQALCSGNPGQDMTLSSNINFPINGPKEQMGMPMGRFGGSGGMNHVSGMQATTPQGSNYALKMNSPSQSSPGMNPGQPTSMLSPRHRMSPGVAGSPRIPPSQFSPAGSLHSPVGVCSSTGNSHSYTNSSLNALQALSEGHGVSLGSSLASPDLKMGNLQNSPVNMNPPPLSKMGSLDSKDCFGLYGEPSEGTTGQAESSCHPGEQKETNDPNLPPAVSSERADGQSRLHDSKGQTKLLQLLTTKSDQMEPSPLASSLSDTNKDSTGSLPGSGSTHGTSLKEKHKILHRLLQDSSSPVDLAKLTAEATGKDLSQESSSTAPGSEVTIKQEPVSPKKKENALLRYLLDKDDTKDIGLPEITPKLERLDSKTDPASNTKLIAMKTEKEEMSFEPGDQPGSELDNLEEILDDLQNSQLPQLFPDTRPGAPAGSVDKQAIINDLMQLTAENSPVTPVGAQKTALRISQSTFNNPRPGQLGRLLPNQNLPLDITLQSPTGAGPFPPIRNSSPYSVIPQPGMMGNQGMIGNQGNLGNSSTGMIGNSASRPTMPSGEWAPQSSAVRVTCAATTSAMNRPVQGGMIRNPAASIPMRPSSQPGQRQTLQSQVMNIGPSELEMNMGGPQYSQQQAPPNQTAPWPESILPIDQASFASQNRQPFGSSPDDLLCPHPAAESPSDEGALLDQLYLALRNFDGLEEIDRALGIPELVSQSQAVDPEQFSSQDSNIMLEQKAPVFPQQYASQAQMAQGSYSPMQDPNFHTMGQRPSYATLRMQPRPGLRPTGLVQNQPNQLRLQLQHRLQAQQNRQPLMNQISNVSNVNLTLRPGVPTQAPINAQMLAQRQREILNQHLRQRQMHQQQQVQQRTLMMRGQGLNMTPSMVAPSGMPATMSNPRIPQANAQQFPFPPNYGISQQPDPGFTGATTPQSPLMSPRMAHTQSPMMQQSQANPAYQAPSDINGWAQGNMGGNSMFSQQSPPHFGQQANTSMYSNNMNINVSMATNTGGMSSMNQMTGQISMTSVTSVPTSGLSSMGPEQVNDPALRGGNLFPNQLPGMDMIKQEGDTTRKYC

[8] = Late stage counterscreen results from the probe development effort to identify activators of signal transducer and activator of transcription 1 (STAT1): luminescence-based cell-based dose response assay to identify cytotoxic compounds.; type: functional
[9] = molecular target: T3, Estrogen receptor (Homo sapiens, UniProt P03372);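 also: potency for inhibiting coactivator peptide recruitment to the receptor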
T3 sequence (P03372 whole entry): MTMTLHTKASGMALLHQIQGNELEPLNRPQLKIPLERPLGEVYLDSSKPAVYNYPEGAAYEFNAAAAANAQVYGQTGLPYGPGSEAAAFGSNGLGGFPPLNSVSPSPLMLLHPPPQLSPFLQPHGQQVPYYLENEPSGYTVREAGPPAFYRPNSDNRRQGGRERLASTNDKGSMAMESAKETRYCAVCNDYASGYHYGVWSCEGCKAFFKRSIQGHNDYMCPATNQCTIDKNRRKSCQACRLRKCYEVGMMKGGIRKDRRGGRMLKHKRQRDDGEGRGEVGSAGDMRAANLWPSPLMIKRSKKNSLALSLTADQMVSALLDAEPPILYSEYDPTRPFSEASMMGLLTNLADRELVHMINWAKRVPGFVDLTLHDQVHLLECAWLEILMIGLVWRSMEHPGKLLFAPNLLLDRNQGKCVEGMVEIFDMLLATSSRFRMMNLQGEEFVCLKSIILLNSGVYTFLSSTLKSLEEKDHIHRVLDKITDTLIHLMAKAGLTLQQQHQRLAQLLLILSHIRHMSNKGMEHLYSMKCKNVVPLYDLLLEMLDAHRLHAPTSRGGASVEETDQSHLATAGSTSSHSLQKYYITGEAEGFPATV

T1 sequence (P11940 whole entry, the tested form may be a part): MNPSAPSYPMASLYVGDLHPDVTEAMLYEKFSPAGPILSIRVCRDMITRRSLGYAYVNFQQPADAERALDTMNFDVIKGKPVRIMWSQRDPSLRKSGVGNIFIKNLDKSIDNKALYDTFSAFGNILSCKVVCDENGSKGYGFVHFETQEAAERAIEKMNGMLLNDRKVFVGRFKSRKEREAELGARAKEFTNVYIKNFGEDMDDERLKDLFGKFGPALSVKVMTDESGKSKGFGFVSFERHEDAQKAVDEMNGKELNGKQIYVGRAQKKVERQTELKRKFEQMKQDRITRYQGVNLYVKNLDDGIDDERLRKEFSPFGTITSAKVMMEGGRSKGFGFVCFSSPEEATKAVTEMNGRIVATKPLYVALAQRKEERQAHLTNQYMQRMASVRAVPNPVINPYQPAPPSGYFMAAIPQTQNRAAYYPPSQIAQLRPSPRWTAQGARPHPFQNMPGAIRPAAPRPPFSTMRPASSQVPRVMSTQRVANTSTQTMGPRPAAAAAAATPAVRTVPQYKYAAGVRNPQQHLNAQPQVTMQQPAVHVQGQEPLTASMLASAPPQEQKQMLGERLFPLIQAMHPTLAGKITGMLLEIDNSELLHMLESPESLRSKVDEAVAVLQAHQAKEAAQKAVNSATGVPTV

IC50 [1]	EC50 [2]	EC50 [3]	IC50 [4]	IC50 [5]	IC50 [6]	EC50 [7]	Compound	IC50 [8]	IC50 [9]
> 66 µM (inactive)	3.8 µM (active)	8.51 µM (active)	> 100 µM (inactive)	> 66 µM (inactive)	15.8 µM (active)	3.37 µM (active)	Cc1cc2cc(CNC(=O)c3ccc(S(=O)(=O)N4CCCCC4)cc3)ccc2n1C	–	–
–	–	–	–	–	–	–	COc1ccc2[nH]c3c(c2c1)CCn1c-3nc2ccccc2c1=O	> 55.7 µM (not active)	17.2 µM (active)
